Experimental data as given in patent publication US11795510B2, “Identification of epigenomic reprogramming in cancer and uses thereof” (The Johns Hopkins University, priority 2016, dated 2023).
Entries after “also recorded” stand apart in the source; their conditions may differ.

Assays:
Assay type in all cases: cell-based, human
[1] = test system: global chromatin modifications in peritoneal subclone (A38Per), normal cells (HPDE, fibroblast) and local-regional PDACs; assay: Western blots of histone modifications, peritoneal subclone, normal cells and local-regional PDACs
Description: (§1) Histones were acid extracted as described and western blots performed on 3.5 ug histones, which were checked by Ponceau stains prior to western blot to ensure equal loading. Densitometry was performed with ImageJ software. RNA was extracted with Trizol reagent (Life Technologies) and isopropanol precipitated. Genomic DNA was purified with MasterPure DNA extraction reagents (Epicenter). Immunohistochemistry, H&E staining, and immunofluorescence on formalin-fixed, paraffin-embedded (FFPE) tissue microarray sections (TMAs) were performed according to standard procedures.
(§2) RNAi experiments were performed with siRNA transfections (Oligofectamine, Life Technologies) using negative control siRNA (Sigma, SIC001) and pre-designed siRNA oligonucleotides against indicated genes in parallel (Sigma, PGD: SASI_Hs02 00334150, CDH2: SASI_Hs01_00153995, TOP2B: SASI_Hs02_00311874). siRNAs against mutant KRAS^G12V (CUACGCCAACAGCUCCAAC) (SEQ ID NO:1) were custom designed. Cells were incubated with siRNAs for 4 days after transfection and harvested. For drug treatments in 2-D, cells were grown to 70-80% confluency and treated for 3 days with 250 uM 6AN or DMSO negative control.

[2] = test system: distant metastatic and precursor subclones; assay: YSI metabolite analysis (glucose/glutamine consumption, lactate/glutamate secretion)
Description: Tissue samples and cell lines were previously collected from PDAC patients by rapid autopsy, sequenced-validated, and monitored for mycoplasma as previously described. Low passage (2-17) rapid autopsy cell lines were cultured at 37° C. in DMEM with 10% fetal bovine serum (FBS, Gibco). For MTT assays, 15,000 cells/well were plated into 96 well plates in triplicate, treated 12 hours later, and assayed after 24 hr (glucose responses) or 6 days (chemotherapy) with CellTiter96 (Promega). For glucose response assays, nutrient-deplete DMEM (no glucose, glutamine, pyruvate, or serum) was used with addition of glucose as indicated. […] Cells were then washed with PBS, trypsinized, and viable cells counted with a hemocytometer. Glucose uptake and lactate secretion were measured with a YSI 7100 Bioanalyzer as described in the supplementary methods. […]
YSI metabolite analysis. Metabolite consumption (glucose and glutamine) and production (lactate and glutamate) were measured using a YSI 7100 Bioanalyzer. […] At day 0 cells were counted (3 wells) or cultured in either regular medium or medium supplemented with the indicated compound. […] The area under the curve (AUC) was calculated as N(T)d/ln2([…]), where N(T) is the final cell count, d is doubling time, and T is time of experiment. […]

[3] = test system: distant metastatic and primary tumor precursor subclones; assay: 3-D matrigel tumor forming assay, distant metastatic subclones
Description: as §2
3-D matrigel assays were adapted from Cheung et al. (Control of alveolar differentiation by the lineage transcription factors GATA6 and HOPX inhibits lung adenocarcinoma metastasis. Cancer Cell 23, 725-38 (2013)). […] Well-formed tumors were then counted and representative photographs taken with an EVOS instrument. 3-D suspension tumorsphere assays were performed with 20,000 starting cells/well in ultra-low attachment 6 well plates as described, and tumors counted/photographed after at least 7 days of tumor growth.

[4] = test system: distant metastatic subclones; assay: Organotypic tumor forming assay (3D organotypic stromal cultures)
Description: Organotypic tumor forming assays were adapted from Ridky et al. (P.A. Invasive three-dimensional organotypic neoplasia from multiple normal human epithelia. Nat Med 16, 1450-5 (2010)) and Andl et al. (Epidermal growth factor receptor mediates increased cell proliferation, migration, and aggregation in esophageal keratinocytes in vitro and in vivo. J Biol Chem 278, 1824-30 (2003)). Briefly, 6 well permeable transwell plates (Costar 3414) were overlayed with 1 mL type 1 collagen containing 10×DMEM (acellular layer). Human dermal fibroblasts (ATCC) were suspended (12×10^6 cells/mL) in a mixture of ice cold 10×DMEM, 10% FBS, 52.5% collagen, and 17.5% matrigel (cellular layer), thoroughly mixed, and 2 mL/well plated over the acellular layer. The mixture was allowed to partially solidify for approximately 15 minutes at 37° C., followed by triplicate injection of 1×10^6 PDAC (suspended in 20 ul DMEM) cells into the cellular layer. Cells were incubated for 24 hours in fibroblast growth media above and below the inserts to initiate contraction of the discs. […] Discs were harvested, fixed overnight in 10% formalin, […], and stained with H&E. Tumors were photographed and measured with an Olympus BX53 microscope using cellSens Standard software.

[5] = test system: CDH2 and TOP2B expression; assay: Real-time RT-PCR of CDH2 and TOP2B
Description: as §1

In the case of `NC(=O)c1ccc(N)nc1` [6AN, 6-aminonicotinamide], the “histone modifications, western blot densitometry” value ([1]; normal (HPDE, fibroblast) or local-regional PDAC samples) is reported as “minimal effects; also recorded: did not show such changes”, the “effect on global chromatin modifications (western blots)” value ([1]; peritoneal subclone A38Per) is reported as “no effect” and the “glutamine consumption or glutamate secretion” value [2] is reported as “no effect”. For the same molecule, the “rates of glucose consumption and lactate secretion” value [2] was “selectively slowed”, the “tumor formation in 3D matrigel assays” value [3] was “selectively and strongly blocked tumor formation; also recorded: ablated tumor formation” and the “tumor formation after injection into 3D organotypic stromal cultures” value [4] was “selectively and strongly blocked tumor formation; also recorded: blocked”. For the same molecule, the “CDH2 expression (RT-PCR)” value ([5]; distant metastatic subclone A38Lg) was “selectively repressed” and the “TOP2B expression (RT-PCR)” value ([5]; lung metastatic subclone) was “selectively repressed”.
